The values below come from patent US6906098B2, “Mixed steroidal 1,2,4,5-tetraoxane compounds and methods of making and using thereof” (priority 2002, dated 2005).

A word on the MIC: it is the least concentration at which growth counts as inhibited. As usually defined, the IC50 is the point on the concentration scale where inhibition reaches its midpoint.

Experiment [1] deals with D6 and W2 P. falciparum clones. The format is cell-based, Plasmodium falciparum. As to conditions: for Resistance Index: IC50 (W2)/IC50 (D6) ratio.
The subject of experiment [2] is Mycobacterium tuberculosis H37Rv (ATCC 27294). Put plainly: Primary screen, Microplate Alamar Blue Assay (MABA), percent inhibition. It counts as cell-based. The settings on record: primary screening at 6.25 μg/ml; for inhibition at 6.25 µg/mL: Mycobacterium tuberculosis. The protocol: (§1) The activity of the compounds of the present invention against Mycobacterium tuberculosis was determined using the following assays conducted by the National Institute of Allergy and Infectious Diseases (NIAID) supports a TB drug acquisition and screening program, the TAACF.
To determine the percent inhibition the following assay was conducted. Primary screening was conducted at 6.25 μg/ml (or the molar equivalent of highest molecular weight compound in a given series of congeners) against Mycobacterium tuberculosis H37Rv (ATCC 27294) in BACTEC 12B medium using the Microplate Alamar Blue Assay (MABA). See Collins, L. and S. G. Franzblau. 1997. Microplate alamar blue assay versus BACTEC 460 system for high-throughput screening of compounds against Mycobacterium tuberculosis and Mycobacterium avium. Antimicrob Agents Chemother 41:1004-9, which is herein incorporated by reference.
Minimum compound requirements: 1.0 mg.
In general terms: Resazurin is reduced to fluorescent resorufin, in cell work by metabolically active cells.

Experiment [3] concerns M. tuberculosis H37Rv. Put plainly: Minimum inhibitory concentration (MIC) in the MABA. It counts as cell-based, Mycobacterium tuberculosis. The method, then:
as §1
2. Minimum Inhibitory Concentration (MIC)
The MIC is defined as the lowest concentration effecting a reduction in fluorescence of 90% relative to controls. Minimum compound requirements: 1.0 mg.

The subject of experiment [4] is Plasmodium falciparum chloroquine-resistant strain W2. Put plainly: microbe, parasite or virus in culture. As to conditions: for Strain W2 IC50: growth inhibition, chloroquine-resistant strain W2, 66 h incubation; for IC50: Plasmodium falciparum, W2, 66 h. The format is cell-based.
The test system of experiment [5] is Plasmodium falciparum chloroquine-susceptible strain D6. Briefly: In vitro antimalarial drug susceptibility assay (radiolabeled hypoxanthine incorporation), strain D6. It counts as cell-based. As to conditions: for Strain D6 IC50: growth inhibition, chloroquine-susceptible strain D6, 66 h incubation; for IC50: Plasmodium falciparum, D6, 66 h.
[6] abbreviates: Table 5, Alamar assay, read-out: % Inhib.
[7] abbreviates: Mycobacterium tuberculosis, H37RV, Table 5, Alamar assay, M. tuberculosis H37Rv, read-out: MIC.
Setting [8] is: Table 5, Alamar assay, M. tuberculosis H37Rv.
Setting [9] is: read-out: Strain W2 IC50, growth inhibition, chloroquine-resistant strain W2, 66 h incubation.
The mark [10] stands for this setting: read-out: Strain D6 IC50, growth inhibition, chloroquine-susceptible strain D6, 66 h incubation.

Values after ≈ are worked out from the molar mass of the structure shown. Values joined by “and” are separate entries in the source; they are usually repeats but may differ in a detail not shown here. Equal entries are not always repeated. Where two headings read alike, the source gives them in different places.

Regarding `COC(=O)CCC(C)[C@H]1CCC2C3C(C[C@H](OC(C)=O)[C@@]21C)[C@@]1(C)CCC2(C[C@H]1C[C@H]3OC(C)=O)OOC1(CCC(C)CC1)OO2` (mixture of isomers) [8g/1B08a, Methyl 7α,12α-diacetoxy-5β-cholan-24-oate-3-spiro-6′-(1′,2′,4′,5′-tetraoxacyclohexane)-3′-spiro-1″-((4″R)- and (4″S)-methyl)cyclohexane], the “Resistance Index” value in experiment [1] was determined as 0.50. In addition, the inhibition at 6.25 µg/mL in experiment [2] (Table 3, H37Rv, read-out: Inhibition (%)) turned out to be 29%; in experiment [2] (setting [6]), 29%. The MIC in experiment [3] (Mycobacterium tuberculosis, H37RV, Table 3, H37Rv, read-out: MIC) is > 6.25 µg/mL and > 9.63 µM; in experiment [3] (setting [7]), over 6.25 µg/mL. In addition, in experiment [4], the “Strain W2 IC50” value is 0.00327 µg/mL. For the same compound, the “Strain D6 IC50” value in experiment [5] came to 0.00648 µg/mL.

For `COC(=O)CCC(C)[C@H]1CCC2C3C(C[C@H](OC(C)=O)[C@@]21C)[C@@]1(C)CCC2(C[C@H]1C[C@H]3OC(C)=O)OOC1(CCC(C)CC1)OO2` (mixture of isomers) [8h/1B08b, Methyl 7α,12α-diacetoxy-5β-cholan-24-oate-3-spiro-6′-(1′,2′,4′,5′-tetraoxacyclohexane)-3′-spiro-1″-((4″R)- and (4″S)-methyl)cyclohexane], the “Resistance Index” value in experiment [1] was 0.53. Besides, in experiment [2] (Table 5, Alamar assay), the “% Inhib” value was determined as 38%. In addition, in experiment [3] (setting [8]), the MIC was over 6.25 µg/mL. Further, in experiment [4], the “Strain W2 IC50” value is 0.00854 µg/mL. In addition, the “Strain D6 IC50” value in experiment [5] came to 0.01599 µg/mL.

`CCC1CCC2(CC1)OOC1(CC[C@]3(C)C4C[C@H](OC(C)=O)[C@@]5(C)C(CC[C@@H]5C(C)CCC(=O)OC)C4[C@H](OC(C)=O)C[C@@H]3C1)OO2` (single isomer, unassigned) [8i/1B13a, Methyl 7α,12α-diacetoxy-5β-cholan-24-oate-3-spiro-6′-(1′,2′,4′,5′-tetraoxacyclohexane)-3′-spiro-1″-((4″R or S)- and (4″S or R)-ethyl)cyclohexane]: the “Resistance Index” value in experiment [1] was 2.10. Moreover, in experiment [2] (setting [6]), the inhibition at 6.25 µg/mL came to 62%. The MIC in experiment [3] (setting [7]) is over 6.25 µg/mL. Besides, the half-inhibitory concentration (IC50) in experiment [4] (setting [9]) was determined as 0.00939 µg/mL (≈ 0.0142 µM). Also, in experiment [5], the “Strain D6 IC50” value was determined as 0.00446 µg/mL.

For `CCC1CCC2(CC1)OOC1(CC[C@]3(C)C4C[C@H](OC(C)=O)[C@@]5(C)C(CC[C@@H]5C(C)CCC(=O)OC)C4[C@H](OC(C)=O)C[C@@H]3C1)OO2` (single isomer, unassigned) [8j/1B13b, Methyl 7α,12α-diacetoxy-5β-cholan-24-oate-3-spiro-6′-(1′,2′,4′,5′-tetraoxacyclohexane)-3′-spiro-1″-((4″R or S)- and (4″S or R)-ethyl)cyclohexane], the “Resistance Index” value in experiment [1] worked out at 1.60. The “% Inhib” value in experiment [2] (Table 5, Alamar assay) was determined as 65%. In experiment [3] (setting [8]), this compound registered an MIC of over 6.25 µg/mL. Besides, in experiment [4], the “Strain W2 IC50” value amounted to 0.01876 µg/mL. Also, in experiment [5], the “Strain D6 IC50” value is 0.01173 µg/mL.

As to `COC(=O)CCC(C)[C@H]1CCC2C3C(C[C@H](OC(C)=O)[C@@]21C)[C@@]1(C)CCC2(C[C@H]1C[C@H]3OC(C)=O)OOC1(CCC(C(C)(C)C)CC1)OO2` (single isomer, unassigned) [8k/1B09a, Methyl 7α,12α-diacetoxy-5β-cholan-24-oate-3-spiro-6′-(1′,2′,4′,5′-tetraoxacyclohexane)-3′-spiro-1″-(4″R or S)- and (4″S or R)-t-butyl)cyclohexane], the “Resistance Index” value in experiment [1] came to 0.49. Further, the “% Inhib” value in experiment [2] (Table 5, Alamar assay, listed as 8g 1B09a) came out at 32%. The compound further had a minimal inhibitory concentration (MIC) in experiment [3] (Mycobacterium tuberculosis, H37RV, Table 5, Alamar assay, M. tuberculosis H37Rv) of over 6.25 µg/mL. Further, the 50% inhibitory concentration (IC50) in experiment [4] (setting [9]) stood at 0.0364 µg/mL (≈ 0.0527 µM). For the same compound, the “Strain D6 IC50” value in experiment [5] was found to be 0.07426 µg/mL.

For `COC(=O)CCC(C)[C@H]1CCC2C3C(C[C@H](OC(C)=O)[C@@]21C)[C@@]1(C)CCC2(C[C@H]1C[C@H]3OC(C)=O)OOC1(CCC(C(C)(C)C)CC1)OO2` (single isomer, unassigned) [8l/1B09b, Methyl 7α,12α-diacetoxy-5β-cholan-24-oate-3-spiro-6′-(1′,2′,4′,5′-tetraoxacyclohexane)-3′-spiro-1″-(4″R or S)- and (4″S or R)-t-butyl)cyclohexane], the “Resistance Index” value in experiment [1] turned out to be 0.54. Moreover, in experiment [1] (antimalarial activity versus literature tetraoxane), the “times more active than bis(1,1-dioxy-4-tert-butylcyclohexane)” value is “ca. 3.7 times”. Also, the “% Inhib” value in experiment [2] (Table 5, Alamar assay) is listed as 0%. The MIC in experiment [3] (setting [8]) was over 6.25 µg/mL. Moreover, in experiment [4], the “Strain W2 IC50” value stood at 0.01919 µg/mL. The “Strain D6 IC50” value in experiment [5] amounted to 0.03584 µg/mL.

In the case of `CCC1CCC2(CC1)OOC1(CC[C@]3(C)C4C[C@H](OC(C)=O)[C@@]5(C)C(CC[C@@H]5C(C)CCC(=O)O)C4[C@H](OC(C)=O)C[C@@H]3C1)OO2` (single isomer, unassigned) [9i/1C34, 7α,12α-Diacetoxy-5β-cholan-24-oic acid-3-spiro-6′-(1′,2′,4′,5′-tetraoxacyclohexane)-3′-spiro-1″-((4″R or S)-ethyl)cyclohexane], the “Resistance Index” value in experiment [1] amounted to 1.26. For the same compound, the inhibition at 6.25 µg/mL in experiment [2] (setting [6]) was 80%. In experiment [3] (setting [7]), the MIC was over 6.25 µg/mL. Besides, the half-inhibitory concentration (IC50) in experiment [4] (setting [9]) was 0.00471 µg/mL (≈ 0.00726 µM); in experiment [5] (setting [10]) it was 0.00374 µg/mL (≈ 0.00576 µM).

For the compound `CCC1CCC2(CC1)OOC1(CC[C@]3(C)C4C[C@H](OC(C)=O)[C@@]5(C)C(CC[C@@H]5C(C)CCC(N)=O)C4[C@H](OC(C)=O)C[C@@H]3C1)OO2` (single isomer, unassigned) [29/1C40, 7α,12α-Diacetoxy-5β-cholan-24-amide-3-spiro-6′-(1′,2′,4′,5′-tetraoxacyclohexane)-3′-spiro-1″-((4″S or R)-ethyl)cyclohexane], the “Resistance Index” value in experiment [1] turned out to be 0.40. Further, in experiment [2] (Table 5, Alamar assay), the “% Inhib” value is 100%. For the same compound, the MIC in experiment [3] (setting [8]) stood at 3.13 µg/mL (≈ 4.83 µM). The “Strain W2 IC50” value in experiment [4] was determined as 0.00811 µg/mL. Besides, in experiment [5], the “Strain D6 IC50” value stood at 0.02012 µg/mL.

`CCNC(=O)CCC(C)[C@H]1CCC2C3C(C[C@H](OC(C)=O)[C@@]21C)[C@@]1(C)CCC2(C[C@H]1C[C@H]3OC(C)=O)OOC1(CCC(CC)CC1)OO2` (single isomer, unassigned) [31/1C42, N-Ethyl-7α,12α-Diacetoxy-5β-cholan-24-amide-3-spiro-6′-(1′,2′,4′,5′-tetraoxacyclohexane)-3′-spiro-1″-((4″S or R)-ethyl)cyclohexane]: in experiment [1], the “Resistance Index” value is 0.78. The “% Inhib” value in experiment [2] (Table 5, Alamar assay) amounted to 83%. Besides, the MIC in experiment [3] (setting [8]) was over 6.25 µg/mL. In addition, the “Strain W2 IC50” value in experiment [4] was 0.01222 µg/mL. For the same compound, in experiment [5], the “Strain D6 IC50” value was 0.01564 µg/mL.

Regarding `CCCNC(=O)CCC(C)[C@H]1CCC2C3C(C[C@H](OC(C)=O)[C@@]21C)[C@@]1(C)CCC2(C[C@H]1C[C@H]3OC(C)=O)OOC1(CCC(CC)CC1)OO2` (single isomer, unassigned) [32/1C43, N-(n-Propyl)-7α,12α-Diacetoxy-5β-cholan-24-amide-3-spiro-6′-(1′,2′,4′,5′-tetraoxacyclohexane)-3′-spiro-1″-((4″S or R)-ethyl)cyclohexane], the “antimalarial activity in words” value in experiment [1] (D6 and W2 clones, Table 2) is “inactive”. In addition, the “Resistance Index” value in experiment [1] came out at 1.36. The “% Inhib” value in experiment [2] (Table 5, Alamar assay) came out at 71%. The compound also yielded a minimum inhibitory concentration (MIC) in experiment [3] (setting [8]) of over 6.25 µg/mL. In addition, in experiment [4], the “Strain W2 IC50” value was found to be 0.08464 µg/mL. The “Strain D6 IC50” value in experiment [5] came out at 0.0622 µg/mL.

For the compound `CCN(CC)CCCC(C)Nc1ccnc2cc(Cl)ccc12` (stereo not drawn) [Chloroquine, reference compound], the values for the IC50 in experiment [4] (read-out: Strain W2 IC50) and in experiment [5] (read-out: Strain D6 IC50) were 0.0883 µg/mL (≈ 0.276 µM) and 0.00371 µg/mL (≈ 0.0116 µM), respectively.

`OC(c1cc(C(F)(F)F)nc2c(C(F)(F)F)cccc12)C1CCCCN1` (stereo not drawn) [Mefloquine, reference compound]: in experiment [5] (setting [10]), the IC50 was 0.0106 µg/mL (≈ 0.0281 µM).

Consider “Methyl 7α,12α-diacetoxy-5β-cholan-24-oate-3-spiro-6′-(1′,2′,4′,5′-tetraoxacyclohexane)-3′-spiro-1″-((4″R or S)- and (4″S or R)-ethoxycarbonyl)cyclohexane [Compound 1B12a]”, for which the “Resistance Index” value in experiment [1] amounted to 1.87. Further, in experiment [4], the “Strain W2 IC50” value is 0.01256 µg/mL. For the same compound, the “Strain D6 IC50” value in experiment [5] came to 0.00672 µg/mL.

As for “Methyl 7α,12α-diacetoxy-5β-cholan-24-oate-3-spiro-6′-(1′,2′,4′,5′-tetraoxacyclohexane)-3′-spiro-1″-((4″R or S)- and (4″S or R)-ethoxycarbonyl)cyclohexane [Compound 1B12b]”, the “Resistance Index” value in experiment [1] was 1.77. Moreover, the “Strain W2 IC50” value in experiment [4] was 0.05492 µg/mL. Besides, in experiment [5], the “Strain D6 IC50” value came to 0.03101 µg/mL.
